In PMC10205807, “Cross-species comparison in nonclinical pharmacokinetics of lenvatinib by a simple HPLC with ultraviolet detection” (Scientific Reports, 2023):

Columns and labels:
[1] = PK study in mice (intravenous and oral); format: in vivo
Procedure: Female BALB/cAnNCrj-nu/nu mice were purchased from Charles River Laboratories (Kanagawa, Japan) and were acclimatized for 9 days prior to use in the PK study. At the dosing day, 7-week-old mice were used. E7080 was dissolved in 5% glucose injection to make a 0.3 mg/mL solution for intravenous administration and dissolved in water to make 0.3, 1, and 3 mg/mL solutions for oral administrations. Lenvatinib was intravenously administered at the dose of 3 mg/kg via the tail vein using a disposable syringe and oral administration was performed by gastric gavage at the doses of 3, 10, and 30 mg/kg at the dosing volume of 10 mL/kg (n = 3/time point/dose). Whole blood samples were drawn from the vena cava using heparinized syringes at 5, 15, and 30 min, and 1, 2, 4, 6, 8, 12, and 24 h postdose. Plasma samples were obtained by centrifugation and aliquots of plasma were transferred to a tube and stored below − 15 °C until assayed.
PK parameters of lenvatinib were estimated by model independent analysis using a WinNonlin program (Version 4.1, Pharsight Corporation, Mountain View, CA). The time to reach the maximum plasma concentration (Tmax) and the maximum plasma concentration (Cmax) values were obtained directly from the plasma concentration data. Terminal half-life (T1/2) was calculated by ln2/ke, where ke is the slope of the regression line that fits the portion of the terminal phase (at least three time points) in the log-linear concentration–time curve. AUC0–t and AUMC0–t, the area under the concentration–time curves and the area under the first moment curve, from time = zero to time = t, respectively, were calculated using the lenvatinib concentrations in plasma by the linear/log trapezoidal method. AUC0–inf was calculated by AUC0–t + Ct/ke, and AUMC0–inf was AUMC0–t + Ct × t/ke + Ct/(ke)^2, where Ct is the last measurable concentration at time = t. The plasma concentration at time zero for the intravenous dose was extrapolated, while zero was used for the oral doses. Mean residence time (MRT), total plasma clearance (CLtot) and the volume of distribution at steady state (Vdss) were calculated by AUMC0–inf/AUC0–inf, Dose/AUC0–inf and CLtot × MRT, respectively. Oral bioavailability (F) was estimated by comparing dose-normalized AUC0–inf after oral (AUC0–inf.po) and intravenous (AUC0–inf.iv) administration as follows: F (%) = (AUC0–inf.po/AUC0–inf.iv) × 100.

plasma protein = assay: plasma unbound fraction, humans; format: in vitro ADME; settings: human
[2] = Stability of lenvatinib in mice plasma and processed samples; format: physicochemical; settings: for Frozen stability, mean percentage bias from the theoretical values: below − 15 °C, 4 weeks
Procedure: Calibration samples and QC samples for the reproducibility assessment were prepared by spiking 0.05 mL of the working standard solutions to blank plasma (0.05 mL), and QC samples for the stability assessment were prepared by fortifying 0.05 mL of the solution to 1.5 mL of bank plasma. Lenvatinib concentrations in plasma were 0.005, 0.01, 0.03, 0.1, 0.3, 1, 3, 10, 30, and 100 μg/mL for the calibration samples, and were 0.005, 0.01, 1, and 100 μg/mL for the QC samples for reproducibility assessment. Lenvatinib concentrations of QC samples for the stability assessment were 0.01, 1, and 80 μg/mL.
The developed method for the determination of lenvatinib concentrations in plasma was validated and the following validation parameters including linearity, selectivity, intra- and inter-batch reproducibility, extraction recovery, and stability were evaluated in accordance with the bioanalytical guidelines by United States Food and Drug Administration (US-FDA)[7]. The peak height ratios of lenvatinib to the IS of calibration samples were plotted against the corresponding nominal concentrations of lenvatinib. The calibration curve was prepared by the least square method with 1/(concentration)^2 as the weighting factor. In the linearity assessment, accuracy of each calibration sample was determined to ensure that relative error (RE) at each concentration was within ± 15% (within ± 20% at the LLOQ). […] Intra-batch accuracy and precision were evaluated using QC samples at the four concentrations, LLOQ, low QC (LQC), mid QC (MQC), and ULOQ. […] Inter-batch accuracy and precision were evaluated by testing a single sample at each concentration across five batches (n = 5 in total). […] Extraction recoveries of lenvatinib and the IS from plasma samples of the four species were evaluated. The recoveries of lenvatinib at the low, mid, and high QC levels (triplicates per concentration), and that of the IS (0.5 μg/mL) were determined. […] Stability of lenvatinib in plasma and processed samples was assessed at the low and high QC levels. Lenvatinib concentrations in samples after storage were compared to the theoretical concentrations and RE values were calculated. […] Freeze–thaw stability in plasma was evaluated up to three freeze–thaw cycles and frozen stability in plasma was evaluated at − 15 °C or below for 4 weeks (mice, rats, and dogs) or 6 weeks (monkeys). Stability in processed samples was assessed at 4 °C for 7 days. Stability of lenvatinib in the standard solutions was evaluated for the stock (100 μg/mL) and the working solution (5 ng/mL). The stability of the IS solution (0.5 μg/mL) was also assessed. […]

[3] = female, BALB/cAnNCrj-nu/nu, mouse, plasma, intravenous 3 mg/kg
[4] = female, BALB/cAnNCrj-nu/nu, mouse, plasma, oral 3 mg/kg
[5] = female, BALB/cAnNCrj-nu/nu, mouse, plasma, oral 10 mg/kg
[6] = female, BALB/cAnNCrj-nu/nu, mouse, plasma, oral 30 mg/kg

**Q.** Which “CLint (hepatic intrinsic clearance)” value ([1]; estimated from oral PK, Fa and Fg assumed unity, BW 0.02 kg) does the source give for `COc1cc2nccc(Oc3ccc(NC(=O)NC4CC4)c(Cl)c3)c2cc1C(N)=O` [lenvatinib, Lenvatinib] here?
**A.** 325 mL/h

**Q.** And the AUC(0-inf) [1, 3]?
**A.** 8690 ng·h/mL

**Q.** And the MRT [1, 3]?
**A.** 2.07 h

**Q.** And the C0 ([1]; female, BALB/cAnNCrj-nu/nu, mouse, plasma, intravenous 3 mg/kg, extrapolated)?
**A.** 8290 ng/mL

**Q.** What about the clearance ([1]; female, BALB/cAnNCrj-nu/nu, mouse, plasma, intravenous 3 mg/kg, read-out: CLtot (converted)) of the same compound?
**A.** 5.75 mL/min/kg

**Q.** And the Vd ([1]; female, BALB/cAnNCrj-nu/nu, mouse, plasma, intravenous 3 mg/kg, read-out: Vdss)?
**A.** 0.714 L/kg

**Q.** What about the half-life ([1]; female, BALB/cAnNCrj-nu/nu, mouse, plasma, iv, 3 mg/kg, intravenous 3 mg/kg) of the same compound?
**A.** 2.05 h

**Q.** And the AUC(0-inf) [1, 4]?
**A.** 5600 ng·h/mL

**Q.** What about the Cmax [1, 4] of the same compound?
**A.** 1970 ng/mL

**Q.** And the MRT [1, 4]?
**A.** 3.28 h

**Q.** What about the Tmax [1, 4] of the same compound?
**A.** 0.5 h

**Q.** What about the bioavailability ([1]; female, BALB/cAnNCrj-nu/nu, mouse, plasma, oral 3 mg/kg vs intravenous 3 mg/kg, read-out: F (oral bioavailability)) of the same compound?
**A.** 64.4%

**Q.** What about the AUC(0-inf) [1, 5] of the same compound?
**A.** 27700 ng·h/mL

**Q.** What about the Cmax [1, 5] of the same compound?
**A.** 10500 ng/mL

**Q.** What about the MRT [1, 5] of the same compound?
**A.** 3.01 h

**Q.** What about the Tmax [1, 5] of the same compound?
**A.** 0.5 h

**Q.** What about the AUC(0-inf) [1, 6] of the same compound?
**A.** 118000 ng·h/mL

**Q.** What about the Cmax [1, 6] of the same compound?
**A.** 31300 ng/mL

**Q.** What about the MRT [1, 6] of the same compound?
**A.** 3.29 h

**Q.** What about the Tmax [1, 6] of the same compound?
**A.** 1 h

**Q.** What about the half-life ([1]; female, BALB/cAnNCrj-nu/nu, mouse, plasma, po, 3 mg/kg, oral 3 mg/kg) of the same compound?
**A.** 2.09 h

**Q.** And the half-life ([1]; female, BALB/cAnNCrj-nu/nu, mouse, plasma, po, 10 mg/kg, oral 10 mg/kg)?
**A.** 1.74 h

**Q.** And the half-life ([1]; female, BALB/cAnNCrj-nu/nu, mouse, plasma, po, 30 mg/kg, across 3, 10, and 30 mg/kg)?
**A.** 1.74 to 2.09 h

**Q.** And the half-life ([1]; female, BALB/cAnNCrj-nu/nu, mouse, plasma, po, 30 mg/kg, oral 30 mg/kg)?
**A.** 1.85 h

**Q.** And the fraction unbound (plasma protein)?
**A.** 0.0172

**Q.** And the “Freeze/thaw stability, mean percentage bias from the theoretical values” ([2]; mice plasma, 3 cycles, HQC 80 μg/mL)?
**A.** 0.8%

**Q.** What about the “Frozen stability, mean percentage bias from the theoretical values” ([2]; mice plasma, LQC 0.01 μg/mL) of the same compound?
**A.** 0.0%

**Q.** And the “Frozen stability, mean percentage bias from the theoretical values” ([2]; mice plasma, MQC 1 μg/mL)?
**A.** 1.0%

**Q.** What about the “Processed sample stability, mean percentage bias from the theoretical values” ([2]; processed mice plasma samples, 4 °C, 7 days, HQC 80 μg/mL) of the same compound?
**A.** 0.3%
